The text below walks through data of PMC7391726, “Fatty acid mimetic PBI-4547 restores metabolic homeostasis via GPR84 in mice with non-alcoholic fatty liver disease” (Scientific Reports, 2020).

The target of test [1] is T1, PPARα (Homo sapiens, UniProt Q07869).
T1 construct: glutathione S-transferase (GST)-tagged human PPAR-LBD; purchased Fisher Scientific
T1 sequence (Q07869 239-466 limits assumed): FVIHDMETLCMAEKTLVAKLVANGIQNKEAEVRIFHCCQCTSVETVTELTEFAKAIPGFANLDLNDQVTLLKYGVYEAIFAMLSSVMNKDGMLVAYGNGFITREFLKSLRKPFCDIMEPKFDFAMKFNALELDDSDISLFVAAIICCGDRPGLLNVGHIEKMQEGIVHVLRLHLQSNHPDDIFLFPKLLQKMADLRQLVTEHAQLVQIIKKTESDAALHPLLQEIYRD
Nature of the test: LanthaScreen TR-FRET competitive binding assay, PPARα LBD. To be noted: Cheng-Prusoff; read-out: Ki inhibition constant, PPARα LBD. The source says:
The peroxisome proliferator-activated receptors (PPARs), PPARα, PPARδ, and PPARγ are ligand-dependent transcription factors regulated by FAs, including MCFAs, which control expression of several key metabolism-associated genes. We thus characterized the binding and transcriptional activity of PBI-4547 to these receptors. A LanthaScreen TR-FRET competitive binding assay was used to determine the binding affinity of PBI-4547 in comparison to the full control agonists GW7647 (PPARα), GW0742 (PPARδ), and rosiglitazone (PPARγ).
The LanthaScreen time-resolved fluorescence resonance energy transfer (TR-FRET) PPARα, PPARδ and PPARγ competitive binding assay (Fisher Scientific) was performed according to the manufacturer’s protocol. […] The FRET signal was measured using an Infinite M1000 microplate reader by excitation at 332 nm and emission at 520 nm for fluorescein and 490 nm for terbium. Competitive ligand binding to PPAR is detected by a test compound’s ability to displace the Fluormone pan-PPAR Green from the LBD, which results in a decrease of the 520 nm/490 nm TR-FRET ratio. The inhibition constant (Ki) of the competitor ligand was calculated by applying the Cheng-Prusoff equation.

For test [2], the target named is T2, PPARγ (Homo sapiens, UniProt P37231).
T2 construct: PPARγ (S176–Y477); expressed in transfected cells; host or cells: HEK293
T2 sequence (P37231 176-477 isoform P37231-2): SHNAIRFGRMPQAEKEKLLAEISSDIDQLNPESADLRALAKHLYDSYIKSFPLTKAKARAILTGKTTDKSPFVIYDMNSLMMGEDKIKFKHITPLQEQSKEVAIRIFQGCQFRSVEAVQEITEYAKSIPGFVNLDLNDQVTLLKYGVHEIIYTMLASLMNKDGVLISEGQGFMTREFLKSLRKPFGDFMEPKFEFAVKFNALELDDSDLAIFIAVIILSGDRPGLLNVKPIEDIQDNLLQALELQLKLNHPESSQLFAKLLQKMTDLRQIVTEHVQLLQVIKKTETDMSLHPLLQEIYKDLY
The test is described as follows: Cell-based GAL4 transactivation assay in HEK293 cells, PPARγ LBD. The source says: To determine the transcriptional activity of PBI-4547, a cell-based GAL4 transactivation assay in HEK293 cells transfected with either PPARα, PPARδ, or PPARγ LBD was used. […] However, PBI-4547 only partially activated PPARγ transcriptional activity, with a relative maximal efficacy of 38% of the control agonist rosiglitazone.
Generation of the Gαi2, Gαq, and GPR40/β-arrestin-2 BRET biosensors have been described previously. A plasmid encoding the human GPR120-L (long isoform) cDNA was obtained from R&D Systems. GPR120-S (short isoform) was generated by replacing the BglII-BsgI fragment from GPR120-L by a gBlock gene fragment (Integrated DNA Technologies, Coralville, IA) lacking the DNA sequence corresponding to the extra 16 amino acids found in the third intracellular loop of the long form. The GPR120-GFP10 construct was generated by inserting PCR-amplified GPR120-S (without its stop codon) in place of GPR40 in the GPR40-GFP10 plasmid. […]
HEK293 cells were co-transfected with pGL4.35[luc2P/9XGAL4UAS/Hygro] and GAL4-PPAR-Rluc plasmids, and after 24 h of incubation were treated with compounds for 24 h. Luciferase activity was determined with the Dual Glo luciferase assay (Promega). Firefly luminescence was normalized to the constitutively expressed Renilla luminescence, and results expressed as fold induction of vehicle control.

Test [3] relates to standard diet-fed mice. The test is described as follows: Standard diet-fed mice. The class given is in vivo, mouse. The source says: The well-established high-fat diet (HFD) mouse model of obesity was used to study the impact of PBI-4547 on the onset and progression of NAFLD. A 14-week HFD regimen led to significant weight gain in both male and female mice. […] Moreover, PBI-4547 decreased serum triglycerides while enhancing adiponectin levels. […] Of note, the effects of PBI-4547 on bodyweight, food consumption, glucose tolerance, fasting blood glucose, insulin resistance and HOMA-β indices were absent in standard diet-fed mice (Table S1).
WT or Gpr84^−/− mice, as previously described, (aged 10–14 weeks at the beginning of the experiment) were either fed a standard diet (STD) or a high-fat diet (HFD) (Envigo #TD.06414) for 14 weeks. At this point, mice were administered either vehicle (water) or PBI-4547 (10 mg/kg) on a daily basis for 6 (WT study) or 8 (WT vs KO study) weeks by gastric gavage, and were sacrificed thereafter. Liver and WAT tissues were fixed in 10% formalin for histological analyses or flash frozen in liquid nitrogen for RT-PCR analyses. All animal studies were reviewed and approved by the animal care and use committee of the Institut National de la Recherche Scientifique – Armand-Frappier (Laval, QC, Canada) and the University of Ottawa’s Animal Care and Veterinary Services (Ottawa, ON, Canada). Protocols were approved and undertaken according to the Canadian Council on Animal Care guidelines.

A word on the Ki: it is the dissociation constant of the complex between target and ligand, obtained from inhibition or displacement. Usually EC50 stands for the concentration needed to bring the measured effect to its halfway point. For the compound `CCCCCc1cc(CCCCC)cc(CC(=O)[O-])c1.[Na+]` [PBI-4547, 2-[3,5-dipentylphenyl]acetate sodium salt], the inhibition constant (Ki) in test [1] stood at 0.489 µM. Further, the EC50 in test [2] (HEK293, 24 h, read-out: EC50, PPARγ transcriptional activity) was determined as 3.6 µM. In addition, the Emax in test [2] (HEK293, of the control agonist rosiglitazone, read-out: relative maximal efficacy, PPARγ transcriptional activity) was determined as 38%. Besides, in test [3], the “effects on bodyweight, food consumption, glucose tolerance, fasting blood glucose, insulin resistance and HOMA-β indices” value is given as “absent”.
